Assay results reported in patent US20080280862A1, “Methods, compositions, and kits for the treatment of pain” (priority 2007, published 2008).

Assays:
[1] = system: acetic acid-induced pain model in mice; test: Acetic acid pain model, writhes; assay type: in vivo, ICR mice
Method: The acetic acid is a reliable fast model for noxious/visceral pain usually used for screening potential drug candidates for their analgesic activity. The effects of test article combinations on pain generation are assayed using the acetic acid-induced pain model in mice. Adult male ICR mice are administered study drugs intraperitoneally (vehicle, TCA, steroid or TCA/Steroid test article combinations) once daily for 2 days (day −2 and day −1) and 30 minutes prior to the acetic acid injection on day 0 (time=0). […] To elicit a pain response, dilute acetic acid (10 ml/kg of 0.6% solution) is injected intraperitoneally into the abdomen. The animal is placed in an observation chamber, and 5 minutes after acetic acid administration, the number of writhes is counted and recorded over a five minute period by a blinded observer. A writhe is considered as a contraction of the abdominal muscles accompanied by an elongation of the body and extension of the hind limb. Results are expressed as number of writhes.

[2] = system: formalin-induced pain model in rats; test: Formalin pain model, nociceptive behaviors; assay type: in vivo, Sprague-Dawley rats; conditions: Experiment Two
In short: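 Male Sprague-Dawley rats dosed intraperitoneally once daily on days −2 and −1 and 30 min before 2% formalin injection into the right hindpaw plantar surface. Lifting, licking and biting were timed by a blinded observer over 1 h, phase I and phase II, reported per 5-min period.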

## C[C@]12C=CC(=O)C=C1CC[C@@H]1[C@@H]2[C@@H](O)C[C@@]2(C)[C@H]1CC[C@]2(O)C(=O)CO [Prednisolone]
[1]; 1 mg/kg ip
  Mean # of writhes per 5 minutes ± SEM: 8.00 ± 1.70
[1]; 5 mg/kg ip
  Mean # of writhes per 5 minutes ± SEM: 14.43 ± 2.07
[1]; 10 mg/kg ip
  Mean # of writhes per 5 minutes ± SEM: 12.29 ± 3.83
[1]; 35 mg/kg ip
  Mean # of writhes per 5 minutes ± SEM: 11.29 ± 5.22
[2]; 1 mg/kg, 5 minutes
  Mean number of behaviors per 5 minute block: 224.0 ± 34.1
[2]; 1 mg/kg, 10 minutes
  Mean number of behaviors per 5 minute block: 27.0 ± 11.7
[2]; 1 mg/kg, 15 minutes
  Mean number of behaviors per 5 minute block: 18.0 ± 15.2
[2]; 1 mg/kg, 20 minutes
  Mean number of behaviors per 5 minute block: 115.0 ± 41.9
[2]; 1 mg/kg, 25 minutes
  Mean number of behaviors per 5 minute block: 172.0 ± 51.1
[2]; 1 mg/kg, 30 minutes
  Mean number of behaviors per 5 minute block: 178.0 ± 52.0
[2]; 1 mg/kg, 35 minutes
  Mean number of behaviors per 5 minute block: 174.0 ± 48.7
[2]; 1 mg/kg, 40 minutes
  Mean number of behaviors per 5 minute block: 207.0 ± 43.9
[2]; 1 mg/kg, 45 minutes
  Mean number of behaviors per 5 minute block: 197.0 ± 45.3
[2]; 1 mg/kg, 50 minutes
  Mean number of behaviors per 5 minute block: 192.0 ± 48.4
[2]; 1 mg/kg, 55 minutes
  Mean number of behaviors per 5 minute block: 113.0 ± 43.2
[2]; 1 mg/kg, 60 minutes
  Mean number of behaviors per 5 minute block: 92.0 ± 29.7
[2]; 3 mg/kg, 5 minutes
  Mean number of behaviors per 5 minute block: 218.0 ± 14.7
[2]; 3 mg/kg, 10 minutes
  Mean number of behaviors per 5 minute block: 15.0 ± 6.7
[2]; 3 mg/kg, 15 minutes
  Mean number of behaviors per 5 minute block: 6.0 ± 3.4
[2]; 3 mg/kg, 20 minutes
  Mean number of behaviors per 5 minute block: 68.0 ± 19.8
[2]; 3 mg/kg, 25 minutes
  Mean number of behaviors per 5 minute block: 208.0 ± 35.5
[2]; 3 mg/kg, 30 minutes
  Mean number of behaviors per 5 minute block: 214.0 ± 39.8
[2]; 3 mg/kg, 35 minutes
  Mean number of behaviors per 5 minute block: 254.0 ± 29.2
[2]; 3 mg/kg, 40 minutes
  Mean number of behaviors per 5 minute block: 269.0 ± 14.2
[2]; 3 mg/kg, 45 minutes
  Mean number of behaviors per 5 minute block: 258.0 ± 19.9
[2]; 3 mg/kg, 50 minutes
  Mean number of behaviors per 5 minute block: 221.0 ± 36.1
[2]; 3 mg/kg, 55 minutes
  Mean number of behaviors per 5 minute block: 198.0 ± 38.1
[2]; 3 mg/kg, 60 minutes
  Mean number of behaviors per 5 minute block: 133.0 ± 46.8
